Patent publication US5616342A, “Emulsioin suitable for administering a poorly water-soluble photosensitizing compound and use thereof” (PDT, Inc., priority 1995, dated 1997)

Columns and labels:
[1] = Description: Mixtures of MCT oil, egg phospholipids, ethanol, and SnEt2 were incubated with different bile salts, all at 4.6 mM^1, under the same conditions described above in Example 1.
[2] = general health / adverse events after drug-emulsion treatment (Example 4); type: in vivo, Fischer 344 rats; settings: i.v. bolus in emulsion plus red light, 30 days
Description: (§1) Fischer 344 rats, engrafted with transplantable, chemically-induced (FANFT) urothelial tumors, were treated with tin ethyl etiopurpurin (SnEt2) and red light (660 nm). SnEt2 was administered as a bolus injection via lateral tail vein, using the emulsion described by the present invention. Tumor response was assessed in groups of nine animals injected with one of four doses of drug and exposed to one of three different doses of light, as summarized in FIG. 1. Control animals received emulsion vehicle without drug. Animals were monitored for tumor re-growth, tissue changes at treatment site, and general health three times per week for a period of 30 days after light treatment.

[3] = tested on: transplantable, FANFT-induced, urothelial tumors; assay: photodynamic treatment of transplantable FANFT-induced urothelial tumors with SnEt2 emulsion and red light (Example 4); type: in vivo, Fischer 344 rats
Description: as §1
By determining the number of tumor-free rats 30 days after each treatment, tumor dose-response curves for drug and light were generated, shown in FIG. 1.

[4] = SnEt2 drug solubility in MCT oil with excipient combinations (Example 1); settings: invention emulsion
Description: After incubating for 30 minutes at 55° C., the tubes stand overnight at room temperature (19°-22° C). The tubes are centrifuged to remove bulk precipitates, and supernatants are filtered through 0.45 μm nylon membrane to remove any undissolved drug. Aliquots of filtrate are then diluted in chloroform:isopropyl alcohol (1:1) for spectrophotometric determination of drug concentration (absorbance at 662 nm). Reference standards are prepared with known concentrations of SnEt2 in the same solvent.

[5] = pH 8.0
Description: In particular, net electronegative charge (Zeta potential) on the emulsified oil droplets is measured by changes in electrophoretic mobility at pH 8.0 (Malvern Zetasizer 2c). […] A relationship between Zeta potential and physical stability of colloidal systems has been documented.

Which “SnEt2 Concentration” value [1] does the source give for CCOC(=O)C1=Cc2c3nc(cc4nc(cc5[n-]c(cc6[n-]c2c(C)c6CC)c(C)c5CC)C(C)=C4CC)[C@@H](C)[C@]13CC.[Cl-].[Cl-].[Sn] (racemic) [SnEt2, Tin ethyl etiopurpurin] here?
Its value is 1.26 mg/gm Oil.

And the “SnEt2 Concentration Normalized” value [1]?
The value was 1.00.

And the adverse clinical events [2]?
The adverse clinical events was “No adverse clinical events were observed”.

What about the “deaths attributable to drug-emulsion treatment” value [2] of the same compound?
Its value is “no deaths occurred”.

What about the “dose and light response by the tumor” value ([3]; four drug doses, three light doses, 30 days) of the same compound?
Its value is “A dose and light response by the tumor was demonstrated”.

And the tumor treatment outcome ([3]; i.v. bolus in emulsion, red laser light 660 nm, 30 days after treatment)?
Its tumor treatment outcome is “effective in the treatment”.

What about the “SnEt2 concentration delivered by the present invention relative to 0.08 mg/ml” value [4] of the same compound?
Its value is “over ten times”.

For C[C@H](CCC(=O)O)[C@H]1CC[C@H]2[C@@H]3[C@H](O)C[C@@H]4C[C@H](O)CC[C@]4(C)[C@H]3C[C@H](O)[C@]12C [sodium cholate], which “effect on Zeta potential of phospholipid-stabilized emulsions” value [5] is on record?
The value was “increases the Zeta potential”.
